The test in a line: Transrepression of RORgammat in anti-CD3/CD28 stimulated human PBMC derived CD4-positive T cells assessed as suppression of T cell differentiation to Th17 cells by measuring reduction in IL-17A level after 7 days by flow cytometry analysis. Background: Flow cytometry measures light scatter and fluorescence of single cells or particles in a stream.

By IC50 is commonly meant the concentration that inhibits the measured activity by half. As for `CCS(=O)(=O)c1ccc(CC(=O)Nc2ccc(C(C)(C)C(=O)Nc3ccc(F)cc3F)c(F)c2)cc1`, the 50% inhibitory concentration (IC50) worked out at 13 nM.
Take `CCS(=O)(=O)c1ccc(CC(=O)Nc2ccc(C(C)(C)C(=O)Nc3ccc(F)cc3F)cc2)cc1`: the IC50 amounted to 36 nM.

For the origin of these results see BindingDB's records for doi:10.1016/j.bmcl.2018.09.032 (Shionogi, 2018).
